These are literature values, as cited in patent US11406678B2, “Simmondsin formulation” (priority 2016, dated 2022).

The conditions of this data set: rats, 25 mg or 50 mg simmondsin per kg body weight.

In the case of `CO[C@H]1[C@@H](OC)C[C@@H](O[C@@H]2O[C@H](CO)[C@@H](O)[C@H](O)[C@H]2O)/C(=C\C#N)[C@@H]1O` [simmondsin], the weight loss result was “no effect on the weight loss”.
